Assay results: BindingDB's records for doi:10.1016/j.bmc.2010.11.049 (Bryn Mawr College, 2011)
pIC50: −log10 of the molar value.

Test: Inhibition of HIV1 YU2 gp120 binding to CD4 expressing Cf2Th-CD4/CCR5 cells assessed as inhibition of viral infection after 48 hrs

Row | SMILES | pIC50
1 | CCOC(=O)[C@H]1CCCN(CCC(=O)Nc2ccc(Br)cc2)C1 [(3S)-1-(3-(4-bromophenylamino)-3-oxopropyl)-3-(ethoxycarbonyl)piperidinium] | < 4.00
2 | O=C(NCc1[nH]nc2c1CCCCC2)C(=O)Nc1ccc(Cl)c(F)c1 [N1-(4-chloro-3-fluorophenyl)-N2-((1,4,5,6,7,8-hexahydrocyclohepta[c]pyrazol-3-yl)methyl)oxalamide] | < 4.00
3 | CC(C)Oc1cc(NC(=O)C(=O)NC2CC(C)(C)NC(C)(C)C2)ccc1Cl [N1-(4-chloro-3-isopropoxyphenyl)-N2-(2,2,6,6-tetramethylpiperidin-4-yl)oxalamide] | < 4.00
4 | CCCN1CCCC(NC(=O)C(=O)Nc2ccc(Cl)c(F)c2)C1 (stereo not given) [N1-(4-chloro-3-fluorophenyl)-N2-(1-propylpiperidin-3-yl)oxalamide] | 4.24
5 | Cc1cc(NC(=O)C(=O)c2c[nH]c3ccccc23)ccc1Br [N-(4-bromo-3-methylphenyl)-2-(1H-indol-3-yl)-2-oxoacetamide] | < 4.00
6 | C[C@@H]1CN(CCC(=O)Nc2ccc(Br)cc2)C[C@H](C)O1 [(2R,6S)-4-(3-(4-bromophenylamino)-3-oxopropyl)-2,6-dimethylmorpholin-4-ium] | < 4.00
7 | CC1(C)C2CCC1(C)C(NC(=O)C(=O)Nc1ccc(Cl)c(F)c1)C2 (stereo not given) [N1-(4-chloro-3-fluorophenyl)-N2-(1,7,7-trimethylbicyclo[2.2.1]heptan-2-yl)oxalamide] | < 4.00
8 | CC(C)C1CCN(CCC(=O)Nc2ccc(Br)cc2)CC1 [trans-1-(3-(4-bromophenylamino)-3-oxopropyl)-4-isopropylpiperidinium] | < 4.00
9 | CCOc1cc(Cl)ccc1NC(=O)C(=O)NC1CC(C)(C)NC(C)(C)C1 [N1-(4-chloro-2-ethoxyphenyl)-N2-(2,2,6,6-tetramethylpiperidin-4-yl)oxalamide] | < 4.00
10 | O=C(NCCc1cnc[nH]1)Nc1ccc(Cl)c(Cl)c1 [1-(2-(1H-imidazol-5-yl)ethyl)-3-(3,4-dichlorophenyl)urea] | < 4.00
11 | O=C(CSc1[nH]c(=O)nc2c1CCCC2)Nc1ccc(Cl)cc1 [N-(4-chlorophenyl)-2-(2-oxo-1,2,5,6,7,8-hexahydroquinazolin-4-ylthio)acetamide] | < 4.00
12 | CC1(C)NC(=O)N(C[C@H](O)COc2ccc(Cl)cc2)C1=O [(S)-3-(3-(4-chlorophenoxy)-2-hydroxypropyl)-5,5-dimethylimidazolidine-2,4-dione] | < 4.00
13 | O=C(COc1ccc(Cl)cc1)Nc1cc(=O)[nH]c(=O)[nH]1 [2-(4-chlorophenoxy)-N-(2,6-dioxo-1,2,3,6-tetrahydropyrimidin-4-yl)acetamide] | < 4.00
14 | O=C(NCc1ccc2c(c1)OCO2)C(=O)Nc1ccc(Br)cc1 [N1-(benzo[d][1,3]dioxol-5-ylmethyl)-N2-(4-bromophenyl)oxalamide] | < 4.00
15 | Cc1ccc(N(C)C)cc1NC(=O)COc1ccc(Cl)cc1 [2-(4-chlorophenoxy)-N-(5-(dimethylamino)-2-methylphenyl)acetamide] | < 4.00
16 | CC(CC(=O)Nc1ccc(Br)cc1)Nc1cccc(CO)c1 (stereo not given) [N-(4-bromophenyl)-3-(3-(hydroxymethyl)phenylamino)butanamide] | < 4.00
17 | Cc1cc(OCC(=O)NCc2nnc[nH]2)ccc1Cl [N-((1H-1,2,4-triazol-3-yl)methyl)-2-(4-chloro-3-methylphenoxy)acetamide] | < 4.00
18 | O=C(COC(=O)c1n[nH]c2ccccc12)Nc1ccc(Cl)cn1 [2-(5-chloropyridin-2-ylamino)-2-oxoethyl 1H-indazole-3-carboxylate] | < 4.00
19 | O=C(NC[C@@H]1CCCN2CCCC[C@H]12)C(=O)Nc1ccc(Cl)c(F)c1 [N1-(4-chloro-3-fluorophenyl)-N2-(((1S,9aR)-octahydro-1H-quinolizin-1-yl)methyl)oxalamide] | < 4.00
20 | CC(NC(=O)C(=O)Nc1ccc(Cl)c(F)c1)C(c1ccccc1Cl)N1CCOCC1 (stereo not given) [N1-(4-chloro-3-fluorophenyl)-N2-(1-(2-chlorophenyl)-1-morpholinopropan-2-yl)oxalamide] | < 4.00
21 | CN1CCN(C(CNC(=O)C(=O)Nc2ccc(Cl)c(F)c2)c2ccccc2Cl)CC1 (stereo not given) [N1-(4-chloro-3-fluorophenyl)-N2-(2-(2-chlorophenyl)-2-(4-methylpiperazin-1-yl)ethyl)oxalamide] | 4.13
22 | O=C(Nc1ccc2c(c1)C(=O)NC2=O)c1ccc(Cl)c(Cl)c1 [3,4-dichloro-N-(1,3-dioxoisoindolin-5-yl)benzamide] | < 4.00
23 | CC1(C)CC(NC(=O)C(=O)Nc2ccc3ccccc3c2)CC(C)(C)N1 [N1-(naphthalen-2-yl)-N2-(2,2,6,6-tetramethylpiperidin-4-yl)oxalamide] | < 4.00
24 | COc1cc(Cl)ccc1NC(=O)C(=O)NC1CC(C)(C)NC(C)(C)C1 [N1-(4-chloro-2-methoxyphenyl)-N2-(2,2,6,6-tetramethylpiperidin-4-yl)oxalamide] | < 4.00
25 | CN1CCC(CNC(=O)C(=O)Nc2ccc(Cl)c(F)c2)CC1 [N1-(4-chloro-3-fluorophenyl)-N2-((1-methylpiperidin-4-yl)methyl)oxalamide] | < 4.00

Row | SMILES | pIC50
26 | CN1CCC(NC(=O)C(=O)Nc2ccc(Cl)c(F)c2)CC1 [N1-(4-chloro-3-fluorophenyl)-N2-(1-methylpiperidin-4-yl)oxalamide] | < 4.00
27 | O=C(NCC1CCN(CCN2CCOCC2)C1)C(=O)Nc1ccc(Cl)c(F)c1 (stereo not given) [N1-(4-chloro-3-fluorophenyl)-N2-((1-(2-morpholinoethyl)pyrrolidin-3-yl)methyl)oxalamide] | < 4.00
28 | O=C(Nc1ccc(Br)cc1)C(=O)Nc1cccc2ccccc12 [N1-(4-bromophenyl)-N2-(naphthalen-1-yl)oxalamide] | < 4.00
29 | C[C@H]1CCCN(CCC(=O)Nc2ccc(Cl)cc2)C1 [(3S)-1-(3-(4-chlorophenylamino)-3-oxopropyl)-3-methylpiperidinium] | < 4.00
30 | CN(C)C(CNC(=O)C(=O)Nc1ccc(Cl)c(F)c1)c1ccco1 (stereo not given) [N1-(4-chloro-3-fluorophenyl)-N2-(2-(dimethylamino)-2-(furan-2-yl)ethyl)oxalamide] | < 4.00
31 | CC1CN(CCNC(=O)C(=O)Nc2ccc(Cl)c(F)c2)CC(C)O1 (stereo not given) [N1-(4-chloro-3-fluorophenyl)-N2-(2-(2,6-dimethylmorpholino)ethyl)oxalamide] | < 4.00
32 | CC1(C)CC(NC(=O)C(=O)Nc2ccc3cc[nH]c3c2)CC(C)(C)N1 [4-(2-(1H-indol-6-ylamino)-2-oxoacetamido)-2,2,6,6-tetramethylpiperidinium] | < 4.00
33 | CC1(C)CC(=NNC(=O)c2[nH]nc3c2CCCC3)CC(C)(C)N1 [2,2,6,6-tetramethyl-4-(2-(4,5,6,7-tetrahydro-1H-indazole-3-carbonyl)hydrazono)piperidinium] | < 4.00
34 | COc1cc(NC(=O)C(=O)NC2CC(C)(C)NC(C)(C)C2)ccc1Cl [N1-(4-chloro-3-methoxyphenyl)-N2-(2,2,6,6-tetramethylpiperidin-4-yl)oxalamide] | < 4.00
35 | O=C(Nc1ccc(Cl)cc1)c1cc(-n2cnnc2)n[nH]1 [N-(4-chlorophenyl)-5-(4H-1,2,4-triazol-4-yl)-1H-pyrazole-3-carboxamide] | < 4.00
36 | CN1CCCN(C(=O)COc2ccc(Cl)cc2)CC1 [4-(2-(4-chlorophenoxy)acetyl)-1-methyl-1,4-diazepan-1-ium] | < 4.00
37 | O=C(Nc1ccc(Cl)c(F)c1)C(=O)N[C@@H]1CCN(Cc2ccccc2)C1 [(R)-N1-(1-benzylpyrrolidin-3-yl)-N2-(4-chloro-3-fluorophenyl)oxalamide] | 4.23
38 | Cc1cc(Cl)ccc1NC(=O)C(=O)NC1CC(C)(C)NC(C)(C)C1 [N1-(4-chloro-2-methylphenyl)-N2-(2,2,6,6-tetramethylpiperidin-4-yl)oxalamide] | < 4.00
39 | CC1(C)CC(NC(=O)C(=O)Nc2ccc(Cl)cc2F)CC(C)(C)N1 [N1-(4-chloro-2-fluorophenyl)-N2-(2,2,6,6-tetramethylpiperidin-4-yl)oxalamide] | < 4.00
40 | CN(C)C(CNC(=O)C(=O)Nc1ccc(Cl)c(F)c1)N1CCCC1 (stereo not given) [N1-(4-chloro-3-fluorophenyl)-N2-(2-(dimethylamino)-2-(pyrrolidin-1-yl)ethyl)oxalamide] | < 4.00
41 | CC1(C)CC(NCC(=O)Nc2ccc(Cl)c(F)c2)CC(C)(C)N1 [N-(4-chloro-3-fluorophenyl)-2-(2,2,6,6-tetramethylpiperidin-4-ylamino)acetamide] | < 4.00
42 | Nc1ncc(CNC(=O)C(=O)Nc2ccc(Cl)c(F)c2)cn1 [N1-((2-aminopyrimidin-5-yl)methyl)-N2-(4-chloro-3-fluorophenyl)oxalamide] | < 4.00
43 | CC1CCCCN1C(C)CNC(=O)C(=O)Nc1ccc(Cl)c(F)c1 (stereo not given) [N1-(4-chloro-3-fluorophenyl)-N2-(2-(2-methylpiperidin-1-yl)propyl)oxalamide] | < 4.00
44 | CN1CCN(C(CNC(=O)C(=O)Nc2ccc(Cl)c(F)c2)c2cccs2)CC1 (stereo not given) [N1-(4-chloro-3-fluorophenyl)-N2-(2-(4-methylpiperazin-1-yl)-2-(thiophen-2-yl)ethyl)oxalamide] | < 4.00
45 | CC1(C)CC(NC(=O)C(=O)Nc2ccc(Cl)c(F)c2)CC(C)(C)N1 [N1-(4-chloro-3-fluorophenyl)-N2-(2,2,6,6-tetramethylpiperidin-4-yl)oxalamide] | 4.13
46 | O=C(NC[C@@H]1COC2(CCCC2)O1)C(=O)Nc1ccc(Cl)cc1 [(R)-N1-(1,4-dioxaspiro[4.4]nonan-2-ylmethyl)-N2-(4-chlorophenyl)oxalamide] | < 4.00
47 | O=C(COc1ccc(Cl)cc1)Nc1ccc2[nH]c(=O)[nH]c2c1 [2-(4-chlorophenoxy)-N-(2-oxo-2,3-dihydro-1H-benzo[d]imidazol-5-yl)acetamide] | < 4.00
48 | Cc1cc(SCC(=O)Nc2ccc(Cl)cc2)[nH]c(=O)n1 [N-(4-chlorophenyl)-2-(6-methyl-2-oxo-1,2-dihydropyrimidin-4-ylthio)acetamide] | < 4.00
49 | CN1CCC(NC(=O)Nc2ccc(Cl)cc2Cl)CC1 [4-(3-(2,4-dichlorophenyl)ureido)-1-methylpiperidinium] | < 4.00
50 | CCCN1CCC(NC(=O)C(=O)Nc2ccc(Cl)c(F)c2)CC1 [N1-(4-chloro-3-fluorophenyl)-N2-(1-propylpiperidin-4-yl)oxalamide] | < 4.00
